Experiments:
[1] = target: PI3Kδ (Homo sapiens, UniProt O00329); details: cited from earlier work
[2] = target: mTOR (Homo sapiens, UniProt P42345); details: cited from earlier work
[3] = target: PI3Kα (Homo sapiens, UniProt P42336); details: cited from earlier work
[4] = target: PI3Kβ (Homo sapiens, UniProt P42338); details: cited from earlier work
[5] = target: PI3Kγ (Homo sapiens, UniProt P48736); details: cited from earlier work
[6] = system: class I PI3Ks; details: cited from earlier work
[7] = target: mTORC1/2 (Homo sapiens, UniProt P42345); details: in words; cited from earlier work
[8] = system: MCL cell lines (Mino, Rec-1, Maver-1, Z138, JeKo-1); assay: CellTiter-Glo Luminescent Cell viability Assay, abemaciclib single agent; type: cell-based; details: 72h; range over venetoclax sensitive (Mino, Rec-1, Maver-1, Z138) and primary resistant (JeKo-1) MCL cells
Description: (§1) IC50 values were calculated using GraphPad Prism 8 for each cell line. Student's t-test was performed to compare the difference between vehicle and treated groups. Two-way analysis of variance (ANOVA) was conducted to analyze the tumor growth in vivo experiments. P values less than 0.05 were considered statistically significant.

[9] = system: Mino-ven-R cells; assay: as above; type: cell-based; details: 72h, acquired venetoclax resistance
Description: as §1

[10] = system: Rec-ven-R cells; assay: as above; type: cell-based; details: 72h, acquired venetoclax resistance
Description: as §1

Chain of PI3Kβ (P42338 whole entry): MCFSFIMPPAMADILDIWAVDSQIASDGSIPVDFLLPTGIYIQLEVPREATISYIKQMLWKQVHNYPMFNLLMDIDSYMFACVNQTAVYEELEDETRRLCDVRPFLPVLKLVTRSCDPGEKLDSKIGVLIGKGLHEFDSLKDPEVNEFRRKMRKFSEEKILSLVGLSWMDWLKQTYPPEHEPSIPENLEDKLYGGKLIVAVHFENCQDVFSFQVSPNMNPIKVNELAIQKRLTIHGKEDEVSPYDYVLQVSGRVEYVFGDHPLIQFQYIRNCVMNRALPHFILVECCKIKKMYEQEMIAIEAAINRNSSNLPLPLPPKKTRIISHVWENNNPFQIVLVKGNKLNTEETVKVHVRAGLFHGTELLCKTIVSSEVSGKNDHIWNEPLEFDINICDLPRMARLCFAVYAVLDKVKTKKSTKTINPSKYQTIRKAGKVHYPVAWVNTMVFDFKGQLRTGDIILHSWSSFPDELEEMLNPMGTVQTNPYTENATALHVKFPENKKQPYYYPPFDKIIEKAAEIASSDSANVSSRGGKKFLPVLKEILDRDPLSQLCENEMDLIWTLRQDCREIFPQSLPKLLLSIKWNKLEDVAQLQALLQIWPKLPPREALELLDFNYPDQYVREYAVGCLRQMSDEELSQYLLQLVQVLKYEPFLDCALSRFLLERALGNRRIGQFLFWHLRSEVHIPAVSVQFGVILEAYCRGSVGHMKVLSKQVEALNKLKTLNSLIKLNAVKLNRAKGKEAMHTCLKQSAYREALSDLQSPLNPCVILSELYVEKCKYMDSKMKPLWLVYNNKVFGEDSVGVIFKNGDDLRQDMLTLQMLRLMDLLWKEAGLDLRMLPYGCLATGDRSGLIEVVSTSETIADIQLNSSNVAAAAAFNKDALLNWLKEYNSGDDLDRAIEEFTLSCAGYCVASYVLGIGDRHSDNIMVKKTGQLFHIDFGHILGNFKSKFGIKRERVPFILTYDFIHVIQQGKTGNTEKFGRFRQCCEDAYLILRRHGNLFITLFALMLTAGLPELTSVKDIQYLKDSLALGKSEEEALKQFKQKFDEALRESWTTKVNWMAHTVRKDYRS
Chain of PI3Kβ (P27986 whole entry partner): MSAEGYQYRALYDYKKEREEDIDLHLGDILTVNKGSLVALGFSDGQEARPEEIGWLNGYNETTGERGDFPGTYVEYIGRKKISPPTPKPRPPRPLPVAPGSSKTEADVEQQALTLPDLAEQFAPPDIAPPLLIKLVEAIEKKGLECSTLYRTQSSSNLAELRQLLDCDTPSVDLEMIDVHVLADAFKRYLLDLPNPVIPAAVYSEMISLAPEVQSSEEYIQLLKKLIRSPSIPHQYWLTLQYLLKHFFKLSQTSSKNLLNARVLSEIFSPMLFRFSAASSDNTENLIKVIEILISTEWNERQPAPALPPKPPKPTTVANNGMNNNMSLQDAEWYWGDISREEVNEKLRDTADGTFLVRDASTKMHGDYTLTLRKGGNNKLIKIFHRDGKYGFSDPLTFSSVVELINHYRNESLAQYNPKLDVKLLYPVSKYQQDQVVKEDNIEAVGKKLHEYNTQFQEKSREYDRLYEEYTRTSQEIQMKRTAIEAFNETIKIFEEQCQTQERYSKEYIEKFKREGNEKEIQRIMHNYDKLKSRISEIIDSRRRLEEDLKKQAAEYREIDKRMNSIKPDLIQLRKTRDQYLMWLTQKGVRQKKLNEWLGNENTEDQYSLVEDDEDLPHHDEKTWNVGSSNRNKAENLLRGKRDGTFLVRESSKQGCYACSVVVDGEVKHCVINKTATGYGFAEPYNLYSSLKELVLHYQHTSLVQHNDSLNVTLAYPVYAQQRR
Chain of PI3Kα (P42336 whole entry): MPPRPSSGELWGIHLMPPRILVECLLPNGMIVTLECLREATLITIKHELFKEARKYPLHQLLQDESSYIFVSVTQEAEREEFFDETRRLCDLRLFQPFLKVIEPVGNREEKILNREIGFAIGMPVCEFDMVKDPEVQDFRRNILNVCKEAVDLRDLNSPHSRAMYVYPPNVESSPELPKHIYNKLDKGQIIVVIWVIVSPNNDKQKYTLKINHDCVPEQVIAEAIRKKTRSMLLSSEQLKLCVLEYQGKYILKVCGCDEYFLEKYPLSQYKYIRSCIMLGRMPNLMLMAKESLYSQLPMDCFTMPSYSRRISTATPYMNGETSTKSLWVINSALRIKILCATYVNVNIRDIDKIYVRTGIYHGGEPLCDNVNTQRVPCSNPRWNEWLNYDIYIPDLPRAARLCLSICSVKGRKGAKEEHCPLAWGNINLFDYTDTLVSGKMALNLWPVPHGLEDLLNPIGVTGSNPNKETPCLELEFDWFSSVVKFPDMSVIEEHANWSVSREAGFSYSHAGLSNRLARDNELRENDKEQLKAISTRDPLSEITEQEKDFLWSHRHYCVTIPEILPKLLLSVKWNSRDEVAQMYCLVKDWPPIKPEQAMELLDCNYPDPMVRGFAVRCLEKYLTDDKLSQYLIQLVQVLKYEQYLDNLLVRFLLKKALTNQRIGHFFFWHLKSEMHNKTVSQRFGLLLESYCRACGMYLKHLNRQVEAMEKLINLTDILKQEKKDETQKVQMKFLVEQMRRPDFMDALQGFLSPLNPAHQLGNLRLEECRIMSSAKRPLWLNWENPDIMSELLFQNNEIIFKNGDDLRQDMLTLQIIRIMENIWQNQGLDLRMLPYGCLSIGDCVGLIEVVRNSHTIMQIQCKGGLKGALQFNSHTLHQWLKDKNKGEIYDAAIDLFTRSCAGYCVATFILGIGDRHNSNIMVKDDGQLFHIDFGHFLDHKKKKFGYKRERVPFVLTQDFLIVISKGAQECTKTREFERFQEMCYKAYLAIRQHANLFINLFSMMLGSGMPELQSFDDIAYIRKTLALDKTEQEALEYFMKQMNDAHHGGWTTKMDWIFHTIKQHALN
Chain of PI3Kα (P27986 whole entry partner): as the sequence (P27986 whole entry partner) above
Chain of PI3Kγ (P48736 whole entry): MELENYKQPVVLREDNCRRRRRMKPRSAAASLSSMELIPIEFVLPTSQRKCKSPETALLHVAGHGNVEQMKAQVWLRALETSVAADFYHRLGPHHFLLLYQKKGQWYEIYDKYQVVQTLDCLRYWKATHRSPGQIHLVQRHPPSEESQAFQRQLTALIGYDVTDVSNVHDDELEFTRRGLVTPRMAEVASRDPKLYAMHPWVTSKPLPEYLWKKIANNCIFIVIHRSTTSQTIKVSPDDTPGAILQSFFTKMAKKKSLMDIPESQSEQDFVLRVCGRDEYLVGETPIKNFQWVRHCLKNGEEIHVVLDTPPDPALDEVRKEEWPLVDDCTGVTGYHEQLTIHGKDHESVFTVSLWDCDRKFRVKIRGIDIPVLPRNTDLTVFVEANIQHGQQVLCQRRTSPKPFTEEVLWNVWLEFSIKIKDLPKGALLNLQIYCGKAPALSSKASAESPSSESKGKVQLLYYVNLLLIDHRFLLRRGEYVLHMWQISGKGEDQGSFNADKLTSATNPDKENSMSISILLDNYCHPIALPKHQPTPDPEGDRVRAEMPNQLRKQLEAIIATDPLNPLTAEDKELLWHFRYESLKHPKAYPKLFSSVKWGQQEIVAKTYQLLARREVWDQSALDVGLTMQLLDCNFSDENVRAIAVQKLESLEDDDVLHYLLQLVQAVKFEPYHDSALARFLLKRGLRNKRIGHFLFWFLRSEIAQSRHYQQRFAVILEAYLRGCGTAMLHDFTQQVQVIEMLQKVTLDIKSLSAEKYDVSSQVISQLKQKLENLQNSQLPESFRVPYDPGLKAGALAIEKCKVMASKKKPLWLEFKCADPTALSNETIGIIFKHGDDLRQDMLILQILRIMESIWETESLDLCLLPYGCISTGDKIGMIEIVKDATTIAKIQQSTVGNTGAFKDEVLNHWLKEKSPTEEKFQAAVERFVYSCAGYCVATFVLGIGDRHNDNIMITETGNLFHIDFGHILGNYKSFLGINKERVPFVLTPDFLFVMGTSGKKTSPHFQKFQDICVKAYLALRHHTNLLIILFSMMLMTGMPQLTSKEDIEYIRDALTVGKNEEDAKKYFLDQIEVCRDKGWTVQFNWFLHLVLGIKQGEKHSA
Chain of PI3Kδ (O00329 whole entry): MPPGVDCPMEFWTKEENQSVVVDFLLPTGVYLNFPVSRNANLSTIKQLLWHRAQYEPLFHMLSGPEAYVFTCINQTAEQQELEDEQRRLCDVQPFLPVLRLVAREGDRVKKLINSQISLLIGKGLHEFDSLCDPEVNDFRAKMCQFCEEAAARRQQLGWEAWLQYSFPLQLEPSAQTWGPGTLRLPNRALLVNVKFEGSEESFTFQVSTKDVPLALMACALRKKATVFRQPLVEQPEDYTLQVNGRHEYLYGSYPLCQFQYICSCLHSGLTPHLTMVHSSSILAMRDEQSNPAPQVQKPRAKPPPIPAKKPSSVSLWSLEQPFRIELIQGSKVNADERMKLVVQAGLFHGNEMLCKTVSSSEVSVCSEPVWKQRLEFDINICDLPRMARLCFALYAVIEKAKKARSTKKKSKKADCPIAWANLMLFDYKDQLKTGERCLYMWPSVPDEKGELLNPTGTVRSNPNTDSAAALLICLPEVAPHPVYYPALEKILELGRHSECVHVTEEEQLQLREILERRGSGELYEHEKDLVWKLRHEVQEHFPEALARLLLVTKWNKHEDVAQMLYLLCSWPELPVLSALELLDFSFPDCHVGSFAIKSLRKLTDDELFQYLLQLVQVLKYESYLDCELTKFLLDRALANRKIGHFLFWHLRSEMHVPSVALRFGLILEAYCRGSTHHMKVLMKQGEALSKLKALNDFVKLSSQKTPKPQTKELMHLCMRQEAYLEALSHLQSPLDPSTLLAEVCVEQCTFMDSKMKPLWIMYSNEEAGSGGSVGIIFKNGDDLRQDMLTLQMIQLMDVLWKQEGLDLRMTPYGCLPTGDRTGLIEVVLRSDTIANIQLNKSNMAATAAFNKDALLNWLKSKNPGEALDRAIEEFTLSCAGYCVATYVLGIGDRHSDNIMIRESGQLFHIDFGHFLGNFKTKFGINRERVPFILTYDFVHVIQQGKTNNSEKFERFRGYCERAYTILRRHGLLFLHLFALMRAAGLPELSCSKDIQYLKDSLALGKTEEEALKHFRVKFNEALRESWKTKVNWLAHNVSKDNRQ
Chain of PI3Kδ (P27986 whole entry partner): as the sequence (P27986 whole entry partner) above

Structure (SMILES)	IC50 against PI3Kδ (order of magnitude in words) [1]	IC50 against mTOR (order of magnitude in words) [2]	IC50 against PI3Kα (order of magnitude in words) [3]	IC50 against PI3Kγ (order of magnitude in words) [5]	other results
C[C@@H](Nc1cc(F)cc(F)c1)c1cc(C(=O)N(C)C)cc2c(=O)cc(N3CCOCC3)oc12 [AZD8186, 8-[(1R)-1-(3,5-difluoroanilino)ethyl]-N,N-dimethyl-2-morpholin-4-yl-4-oxochromene-6-carboxamide]	nanomolar				
C[C@H](Nc1ncnc2nc[nH]c12)c1nc2ccc(F)cc2c(=O)n1-c1ccccc1 [Acalisib, 6-fluoro-3-phenyl-2-[(1S)-1-(7H-purin-6-ylamino)ethyl]quinazolin-4-one]	nanomolar				
Cc1c(CN2CCN(C(=O)[C@H](C)O)CC2)sc2c(N3CCOCC3)nc(-c3cnc(N)nc3)nc12 [Apitolisib, (2S)-1-[4-[[2-(2-aminopyrimidin-5-yl)-7-methyl-4-morpholin-4-ylthieno[3,2-d]pyrimidin-6-yl]methyl]piperazin-1-yl]-2-hydroxypropan-1-one]		nanomolar			
COc1ccc(-c2ccc3ncc4c(c3c2)n(-c2ccc(N3CCNCC3)c(C(F)(F)F)c2)c(=O)n4C)cn1 [BGT-226, 8-(6-methoxypyridin-3-yl)-3-methyl-1-[4-piperazin-1-yl-3-(trifluoromethyl)phenyl]imidazo[4,5-c]quinolin-2-one]	nanomolar	nanomolar	nanomolar	nanomolar	IC50 against PI3Kβ (order of magnitude in words) [4]: nanomolar
CS(=O)(=O)N1CCc2c(-c3cnc(N)nc3)nc(N3CCOCC3)nc21 [CH5132799, 5-(7-(methylsulfonyl)-2-morpholino-6,7-dihydro-5H-pyrrolo[2,3-d]pyrimidin-4-yl)pyrimidin-2-amine]					IC50 against class I PI3Ks (order of magnitude in words) [6]: nanomolar
COc1cccc2cc(-c3nc([C@H]4CC[C@H](C(=O)O)CC4)n4ncnc(N)c34)[nH]c12 [OSI-027, 4-[4-amino-5-(7-methoxy-1H-indol-2-yl)imidazo[5,1-f][1,2,4]triazin-7-yl]cyclohexane-1-carboxylic acid]		nanomolar			
COc1ncc(-c2ccc3nccc(-c4ccnnc4)c3c2)cc1NS(=O)(=O)c1ccc(F)cc1F [Omipalisib, 2,4-difluoro-N-[2-methoxy-5-(4-pyridazin-4-ylquinolin-6-yl)pyridin-3-yl]benzenesulfonamide]				nanomolar	
O=C(Nc1ccncc1)Nc1ccc(-c2nc(N3CCOCC3)nc(N3C4CCC3COC4)n2)cc1 [PKI-179, 1-[4-[4-morpholin-4-yl-6-(3-oxa-8-azabicyclo[3.2.1]octan-8-yl)-1,3,5-triazin-2-yl]phenyl]-3-pyridin-4-ylurea]	nanomolar	nanomolar	nanomolar	nanomolar	IC50 against PI3Kβ (order of magnitude in words) [4]: nanomolar
CCOc1c([C@H](C)n2nc(C)c3c(N)ncnc32)cc(Cl)c(F)c1[C@@H]1CNC(=O)C1 [Parsaclisib, (4R)-4-[3-[(1S)-1-(4-amino-3-methylpyrazolo[3,4-d]pyrimidin-1-yl)ethyl]-5-chloro-2-ethoxy-6-fluorophenyl]pyrrolidin-2-one]	nanomolar				
COc1ccc(Cl)c(Nc2nc3ccccc3nc2NS(=O)(=O)c2cccc(NC(=O)C(C)(C)N)c2)c1 [Pilaralisib, 2-amino-N-[3-[[3-(2-chloro-5-methoxyanilino)quinoxalin-2-yl]sulfamoyl]phenyl]-2-methylpropanamide]	nanomolar		nanomolar	nanomolar	IC50 against PI3Kβ (order of magnitude in words) [4]: nanomolar
CO[C@@H](C)Cn1c(=O)n(C)c2cnc3ccc(-c4cncc(C(C)(C)O)c4)cc3c21 [Samotolisib, 8-[5-(2-hydroxypropan-2-yl)pyridin-3-yl]-1-[(2S)-2-methoxypropyl]-3-methylimidazo[4,5-c]quinolin-2-one]					concentrations at which mTORC1/2 is inhibited [7]: low nanomolar concentrations
Nc1nc2cc(-c3ccc4ncc(C(=O)N5CCOCC5)n4c3)ccc2o1 [Serabelisib, [6-(2-amino-1,3-benzoxazol-5-yl)imidazo[1,2-a]pyridin-3-yl]-morpholin-4-ylmethanone]			nanomolar		
C=CCN(/C=C1/C(=O)O[C@H](COC)[C@@]2(C)C1=C(O)C(=O)C1=C2[C@H](OC(C)=O)C[C@]2(C)C(=O)CC[C@@H]12)CC=C [Sonolisib, [(3αR,6E,9S,9αR,10R,11αS)-6-[bis(prop-2-enyl)aminomethylidene]-5-hydroxy-9-(methoxymethyl)-9α,11α-dimethyl-1,4,7-trioxo-2,3,3a,9,10,11-hexahydroindeno[4,5-h]isochromen-10-yl]acetate]	nanomolar		nanomolar	nanomolar	
Cc1nc(-c2cn3c(n2)-c2ccc(-c4cnn(C(C)(C)C(N)=O)c4)cc2OCC3)n(C(C)C)n1 [Taselisib, 2-methyl-2-[4-[2-(5-methyl-2-propan-2-yl-1,2,4-triazol-3-yl)-5,6-dihydroimidazo[1,2-d][1,4]benzoxazepin-9-yl]pyrazol-1-yl]propanamide]				nanomolar	IC50 against PI3Kβ (order of magnitude in words) [4]: nanomolar
CO[C@H]1C[C@@H]2CC[C@@H](C)[C@@](O)(O2)C(=O)C(=O)N2CCCC[C@H]2C(=O)O[C@H]([C@H](C)C[C@@H]2CC[C@@H](OC(=O)C(C)(CO)CO)[C@H](OC)C2)CC(=O)[C@H](C)/C=C(\C)[C@@H](O)[C@@H](OC)C(=O)[C@H](C)C[C@H](C)/C=C/C=C/C=C/1C [Temsirolimus, [(1R,2R,4S)-4-[(2R)-2-[(1R,9S, 12S, 15R, 16E,18R, 19R,21R,23S,24E,26E,28E,30S,32S,35R)-1,18-dihydroxy-19,30-dimethoxy-15,17,21,23,29,35-hexamethyl-2,3,10, 14,20-pentaoxo-11,36-dioxa-4-azatricyclo[30.3.1.04,9]hexatriaconta-16,24,26,28-tetraen-12-yl]propyl]-2-methoxycyclohexyl]3-hydroxy-2-(hydroxymethyl)-2-methylpropanoate]		micromolar			
CC[C@H](Nc1ncnc2[nH]cnc12)c1oc2ccccc2c(=O)c1-c1cccc(F)c1 [Tenalisib, 3-(3-fluorophenyl)-2-[(1S)-1-(7H-purin-6-ylamino)propyl]chromen-4-one]	nanomolar			nanomolar	
CCn1c(=O)c(-c2ccn[nH]2)cc2c(C)nc(N)nc21 [Voxtalisib, 2-amino-8-ethyl-4-methyl-6-(1H-pyrazol-5-yl)pyrido[2,3-d]pyrimidin-7-one]	nanomolar	nanomolar	nanomolar	nanomolar	IC50 against PI3Kβ (order of magnitude in words) [4]: nanomolar
CN1CCC(c2ccccc2CC(C)(C)Nc2nc(N3CCOCC3)nc(-n3c(C(F)F)nc4ccccc43)n2)CC1 [Zandelisib, 4-[2-(difluoromethyl)benzimidazol-1-yl]-N-[2-methyl-1-[2-(1-methylpiperidin-4-yl)phenyl]propan-2-yl]-6-morpholin-4-yl-1,3,5-triazin-2-amine]	nanomolar				
CCN1CCN(Cc2ccc(Nc3ncc(F)c(-c4cc(F)c5nc(C)n(C(C)C)c5c4)n3)nc2)CC1 [abemaciclib]					IC50 [8]: 0.07 to 0.952 µM; IC50 [9]: 6 µM; IC50 [10]: 4.4 µM

Source: patent publication US20250041300A1, “PHARMACEUTICAL COMBINATION COMPRISING ABEMACICLIB AND A PI3K AND/OR A MTOR INHIBITOR FOR THE TREATMENT OF MANTLE CELL LYMPHOMA” (Board of Regents, The University of Texas System, priority 2021, published 2025)
